Values of other authors in patent US11154491B2, “Use of Undaria extract to reduce signs of skin aging” (Kimberly-Clark Worldwide, Inc., priority 2014, dated 2021).

System: 3T3-L1 cells
Details: literature

Fucoidan
adipogenesis: inhibit adipogenesis
